According to ChEMBL document CHEMBL1201862, “PubChem BioAssay data set” (2004):
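Grown in 96-well plates, cells were treated for 48 hours with each compound at five concentrations. Insufficient inhibition: endpoint recorded as highest concentration tested. Abbreviation: GI50, concentration required for 50% inhibition of growth.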 The source made the active and inactive calls. Rule as the data show it: active = GI50 up to about 1.1 µM and inactive = higher.

Experiments:
Assay in all cases: NCI-60 cell line screen, 48 h
[1] = test system: A498
[2] = test system: BT-549
[3] = test system: CAKI-1
[4] = test system: DU-145
[5] = test system: HCT-15
[6] = test system: K562
[7] = test system: LOX IMVI
[8] = test system: MDA-MB-231
[9] = test system: Malme-3M
[10] = test system: NCI-H460
[11] = test system: NCI-H522
[12] = test system: OVCAR-3
[13] = test system: OVCAR-5
[14] = test system: SF-539
[15] = test system: SK-OV-3
[16] = test system: TK-10
[17] = test system: U-251
[18] = test system: UACC-257
[19] = test system: UACC-62
[20] = test system: HOP-92

Row | Compound | GI50 [1] | GI50 [2] | GI50 [3] | GI50 [4] | GI50 [5] [µM] | GI50 [6] | GI50 [7] | GI50 [8] | GI50 [9] | GI50 [10] | GI50 [11] | GI50 [12] | GI50 [13] | GI50 [14] | GI50 [15] | GI50 [16] | GI50 [17] | GI50 [18] | GI50 [19] | GI50 [20]
1 | O=C1c2cccnc2C(=O)c2c1nc1ccccc1c2-c1cncc(-c2c3c(nc4ccccc24)C(=O)c2cccnc2C3=O)c1 | 2.56 µM (inactive) | 0.502 µM (active) | 0.332 µM (active) | 0.165 µM (active) | 0.0251 | 0.213 µM (active) | 0.139 µM (active) | 0.237 µM (active) | 0.28 µM (active) | 0.19 µM (active) | 0.103 µM (active) | 0.0752 µM (active) | 1.8 µM (inactive) | 2.19 µM (inactive) | 0.363 µM (active) | 0.458 µM (active) | 0.146 µM (active) | 0.318 µM (active) | 0.474 µM (active) | –
2 | CC1(C)OC(=S)N(c2ccccc2)C12C=Cc1cc3ccccc3cc1O2 (configuration not stated) | > 100 µM (inactive) | > 100 µM (inactive) | > 100 µM (inactive) | > 100 µM (inactive) | > 100 | 41.3 µM (inactive) | > 100 µM (inactive) | > 100 µM (inactive) | – | > 100 µM (inactive) | – | > 100 µM (inactive) | > 100 µM (inactive) | – | > 100 µM (inactive) | > 100 µM (inactive) | > 100 µM (inactive) | > 100 µM (inactive) | > 100 µM (inactive) | > 100 µM (inactive)
3 | CC[C@]1(Cc2ccc(OC)c(OC)c2)[C@@H]2C[C@@H](C3OCCO3)ON2O[C@H](OC2CCCC2(c2ccccc2)c2ccccc2)[C@@H]1OC(C)=O (some centres not stated) | – | 25.6 µM (inactive) | 32.8 µM (inactive) | 26.6 µM (inactive) | 14.5 | 17.7 µM (inactive) | 23.3 µM (inactive) | 44.3 µM (inactive) | – | 16.1 µM (inactive) | 15.1 µM (inactive) | 12.7 µM (inactive) | 17.9 µM (inactive) | 40.4 µM (inactive) | 43.1 µM (inactive) | 45.3 µM (inactive) | 33.2 µM (inactive) | 19.6 µM (inactive) | 37.4 µM (inactive) | –
4 | O=C1C[C@@H](Sc2ccccc2)C2(OCCO2)[C@H]2ON3CCC[C@@H]3[C@@H]12 | 10.9 µM (inactive) | 6.53 µM (inactive) | 4.42 µM (inactive) | 2.55 µM (inactive) | 2.44 | 2.56 µM (inactive) | 3.1 µM (inactive) | 3.06 µM (inactive) | 1.82 µM (inactive) | 4.36 µM (inactive) | – | 1.68 µM (inactive) | – | 2.87 µM (inactive) | 13.2 µM (inactive) | 6.71 µM (inactive) | 3.33 µM (inactive) | 13.4 µM (inactive) | 10.9 µM (inactive) | 3.89 µM (inactive)
5 | Nc1ccc(Nc2c3ccccc3nc3ccccc23)cc1 | – | > 10 µM (inactive) | 2.91 µM (inactive) | 4.92 µM (inactive) | 2.84 | 4.86 µM (inactive) | 1.06 µM (active) | 5.81 µM (inactive) | 2.98 µM (inactive) | 0.565 µM (active) | 4.79 µM (inactive) | 3.89 µM (inactive) | 5.52 µM (inactive) | 3.7 µM (inactive) | 5.5 µM (inactive) | 5.98 µM (inactive) | 4.4 µM (inactive) | > 10 µM (inactive) | 1.77 µM (inactive) | –
6 | COc1cc2[nH]c(=O)[nH]c2c2c(C)c[nH]c12 | > 100 µM (inactive) | > 100 µM (inactive) | > 100 µM (inactive) | > 100 µM (inactive) | > 100 | > 100 µM (inactive) | > 100 µM (inactive) | > 100 µM (inactive) | > 100 µM (inactive) | > 100 µM (inactive) | > 100 µM (inactive) | > 100 µM (inactive) | > 100 µM (inactive) | – | > 100 µM (inactive) | > 100 µM (inactive) | > 100 µM (inactive) | > 100 µM (inactive) | > 100 µM (inactive) | –
7 | C/C(=N\Nc1nc2cc(Cl)ccc2s1)c1ccccn1 | 1.61 µM (inactive) | 4.9 µM (inactive) | 0.0653 µM (active) | – | 0.111 | 0.136 µM (active) | 0.459 µM (active) | 0.405 µM (active) | 0.834 µM (active) | 0.673 µM (active) | 0.189 µM (active) | 0.0946 µM (active) | 2.77 µM (inactive) | 1.21 µM (inactive) | 0.404 µM (active) | 2.74 µM (inactive) | 0.877 µM (active) | 0.519 µM (active) | 0.673 µM (active) | 0.473 µM (active)
8 | Cc1cc(NS(=O)(=O)c2ccc(NC(=O)c3ccc4nc5ccccc5c(Nc5ccc(S(=O)(=O)Nc6cc(C)on6)cc5)c4c3)cc2)no1 | – | > 50 µM (inactive) | > 50 µM (inactive) | > 50 µM (inactive) | > 50 | > 50 µM (inactive) | > 50 µM (inactive) | > 50 µM (inactive) | > 50 µM (inactive) | > 50 µM (inactive) | > 50 µM (inactive) | > 50 µM (inactive) | > 50 µM (inactive) | > 50 µM (inactive) | > 50 µM (inactive) | > 50 µM (inactive) | > 50 µM (inactive) | > 50 µM (inactive) | > 50 µM (inactive) | > 50 µM (inactive)
9 | OCCN(/N=C\c1ccc2ccccc2c1)C1=NCCN1 | – | 42.8 µM (inactive) | – | 31.6 µM (inactive) | 30.5 | 14.4 µM (inactive) | 16.3 µM (inactive) | 12.8 µM (inactive) | 15.6 µM (inactive) | 29.4 µM (inactive) | – | 23.2 µM (inactive) | 24.2 µM (inactive) | 21 µM (inactive) | 47.9 µM (inactive) | 37.7 µM (inactive) | 24.9 µM (inactive) | – | 21.3 µM (inactive) | 16 µM (inactive)
10 | CCc1cccc(C(C)C)c1NC(=O)C(=O)Nn1c(S)nc2ccccc2c1=O | > 100 µM (inactive) | > 100 µM (inactive) | > 100 µM (inactive) | – | > 100 | > 100 µM (inactive) | > 100 µM (inactive) | 76.2 µM (inactive) | > 100 µM (inactive) | > 100 µM (inactive) | > 100 µM (inactive) | > 100 µM (inactive) | > 100 µM (inactive) | > 100 µM (inactive) | > 100 µM (inactive) | > 100 µM (inactive) | > 100 µM (inactive) | > 100 µM (inactive) | > 100 µM (inactive) | > 100 µM (inactive)
11 | CC(=O)O[C@H]1/C(=C/c2ccc(N(C)C)cc2)C[C@H]2[C@@H]3CC=C4C[C@@H](N5CCCC5)CC[C@]4(C)[C@H]3CC[C@]12C | > 100 µM (inactive) | > 100 µM (inactive) | – | > 100 µM (inactive) | > 100 | > 100 µM (inactive) | 35.6 µM (inactive) | > 100 µM (inactive) | > 100 µM (inactive) | 61.9 µM (inactive) | – | > 100 µM (inactive) | > 100 µM (inactive) | > 100 µM (inactive) | > 100 µM (inactive) | > 100 µM (inactive) | > 100 µM (inactive) | > 100 µM (inactive) | > 100 µM (inactive) | > 100 µM (inactive)
12 | O=C1N[C@@H](c2c[nH]c3cc(Br)ccc23)C(=O)N[C@H]1c1c[nH]c2cc(Br)ccc12 | > 100 µM (inactive) | > 100 µM (inactive) | – | > 100 µM (inactive) | > 100 | > 100 µM (inactive) | > 100 µM (inactive) | 17.1 µM (inactive) | > 100 µM (inactive) | > 100 µM (inactive) | > 100 µM (inactive) | > 100 µM (inactive) | > 100 µM (inactive) | 79.8 µM (inactive) | 35.4 µM (inactive) | > 100 µM (inactive) | 25.8 µM (inactive) | > 100 µM (inactive) | > 100 µM (inactive) | 40.6 µM (inactive)
13 | Brc1ccc(C2C3CSc4ccccc4C3=NN2c2ccccc2)cc1 (configuration not stated) | > 100 µM (inactive) | > 100 µM (inactive) | 41 µM (inactive) | > 100 µM (inactive) | 39.6 | 77.4 µM (inactive) | 77.8 µM (inactive) | > 100 µM (inactive) | > 100 µM (inactive) | 32.8 µM (inactive) | – | > 100 µM (inactive) | – | 59 µM (inactive) | 82.8 µM (inactive) | > 100 µM (inactive) | 54.2 µM (inactive) | 4.07 µM (inactive) | 75.7 µM (inactive) | > 100 µM (inactive)
14 | CC1(C)OC(=O)N(c2ccccc2)C12C=Cc1cc([N+](=O)[O-])cc([N+](=O)[O-])c1O2 (configuration not stated) | 81.3 µM (inactive) | > 100 µM (inactive) | > 100 µM (inactive) | > 100 µM (inactive) | > 100 | 89.3 µM (inactive) | > 100 µM (inactive) | > 100 µM (inactive) | – | > 100 µM (inactive) | 25.2 µM (inactive) | 97.7 µM (inactive) | > 100 µM (inactive) | – | > 100 µM (inactive) | > 100 µM (inactive) | > 100 µM (inactive) | 50.2 µM (inactive) | 61 µM (inactive) | 12.4 µM (inactive)
15 | C[C@H](CCC(=O)O)[C@H]1CC[C@H]2[C@@H]3CC[C@@H]4C[C@H](O)CC[C@]4(C)[C@H]3C[C@H](O)[C@]12C [DEOXYCHOLIC ACID] | 41.2 µM (inactive) | 48.4 µM (inactive) | 69.5 µM (inactive) | 65.6 µM (inactive) | 36.1 | 36.6 µM (inactive) | 40.8 µM (inactive) | 41.5 µM (inactive) | 32.8 µM (inactive) | 40.7 µM (inactive) | 28 µM (inactive) | 20.4 µM (inactive) | 44.7 µM (inactive) | 48 µM (inactive) | 26.7 µM (inactive) | > 100 µM (inactive) | 30.7 µM (inactive) | 92.3 µM (inactive) | 37.5 µM (inactive) | –
